In PubChem BioAssay (NCI):
Several values for one entry are separate records, joined by “and”; a condition that tells them apart may be missing. Equal entries are not always repeated.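 How tested: cells in 96-well plates exposed to compound for 48 hours at five concentrations. GI50 = concentration required for 50% inhibition of growth. TGI: total growth inhibition.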

Key:
Test in all cases: NCI tumour cell line growth inhibition, 48 h
CCRF-CEM leukemia = test system: CCRF-CEM leukemia
HOP-92 NSCLC = test system: HOP-92 NSCLC
SF-295 CNS = test system: SF-295 CNS
NCI-H460 lung = test system: NCI-H460 lung
MOLT-4 leukemia = test system: MOLT-4 leukemia
786-0 renal = test system: 786-0 renal
COLO 205 colon = test system: COLO 205 colon
HT29 colon = test system: HT29 colon
T-47D breast = test system: T-47D breast
SF-539 CNS = test system: SF-539 CNS

| Compound | GI50 (CCRF-CEM leukemia) | TGI (CCRF-CEM leukemia) [µM] | GI50 (HOP-92 NSCLC) [µM] | TGI (HOP-92 NSCLC) [µM] | GI50 (SF-295 CNS) | TGI (SF-295 CNS) [µM] | GI50 (NCI-H460 lung) [µM] | TGI (NCI-H460 lung) [µM] | GI50 (MOLT-4 leukemia) [µM] | TGI (MOLT-4 leukemia) [µM] | GI50 (786-0 renal) [µM] | TGI (786-0 renal) [µM] | GI50 (COLO 205 colon) [µM] | TGI (COLO 205 colon) [µM] | GI50 (HT29 colon) [µM] | TGI (HT29 colon) [µM] | GI50 (T-47D breast) | TGI (T-47D breast) [µM] | GI50 (SF-539 CNS) [µM] | TGI (SF-539 CNS) [µM] |
| --- | --- | --- | --- | --- | --- | --- | --- | --- | --- | --- | --- | --- | --- | --- | --- | --- | --- | --- | --- | --- |
| NC(N)=NC(N)=NCCc1ccccc1 | 56.1 µM and > 100 µM | > 100 | 1.51 | > 100 | 53.2 µM and > 100 µM | > 100 | > 100 | > 100 | > 100 | > 100 | > 100 | > 100 | > 100 | > 100 | > 100 | > 100 | 84.8 µM and > 100 µM | > 100 | > 100 | > 100 |
| O=C1C(Nc2ccccn2)=C(I)C(=O)c2ncccc21 | 0.552 µM | 5.19 | 1.65 | 4.36 | 1.19 µM | 2.56 | 0.295 | 1.1 | 0.702 | 4.66 | 1.9 | 4.68 | 1.9 | 3.68 | 2.75 | 8.48 | 1.36 µM | 3.82 | 1.37 | 2.69 |
| O=C(N/N=C/c1cc2ccccc2c2ccccc12)c1cc(O)c(O)c(O)c1 | 2.87 µM | > 100 | 2.1 | 7.19 | 14.9 µM | 32.1 | 3.8 | 18 | 3.8 | 18.2 | 2.77 | 7.2 | 3.14 | 10.9 | 9.95 | 31 | 2.23 µM | 7.24 | 2.17 | 5.8 |
| O=c1cccc(C#CCCCCOC2CCCO2)o1 (stereo not given) | 7.14 µM | > 79.9 | 2.17 | 11.5 | 18.4 µM | > 41.4 | 6.81 | > 100 | 8.06 | > 30.8 | 4.03 | 23.6 | 16.1 | > 31.1 | 16.5 | > 60.5 | 22.7 µM | > 48.8 | 4.75 | > 36.6 |
